Laboratory results as given in ChEMBL document CHEMBL1201862, “PubChem BioAssay data set” (2004).
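Growth conditions: 96-well plates. Treatment: test compound, 48 hours, 5 concentrations. Analysis: linear interpolation between bracketing concentrations; unreached endpoints set to highest concentration. At the GI50, growth is halved.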 Activity calls are given as the source filed them. Rule as the data show it: active = GI50 up to about 1.1 µM and inactive = higher.

What was measured:
Experiment in all cases: inhibition of tumour cell growth, NCI panel, 48 h
[1] = test system: 786-0
[2] = test system: CAKI-1
[3] = test system: EKVX
[4] = test system: HOP-92
[5] = test system: HT-29
[6] = test system: Hs-578T
[7] = test system: K562
[8] = test system: LOX IMVI
[9] = test system: Malme-3M
[10] = test system: NCI-H522
[11] = test system: OVCAR-4
[12] = test system: OVCAR-8
[13] = test system: SF-295
[14] = test system: SF-539
[15] = test system: SK-MEL-2
[16] = test system: SK-MEL-5
[17] = test system: SN12C
[18] = test system: SNB-75
[19] = test system: TK-10
[20] = test system: UO-31

Measured: GI50

CCOC(=O)C(SCCO)C(C(=O)OCC)n1ccc(N)nc1=O (centres undefined)
inactive: [1] > 100 µM | [2] > 100 µM | [3] > 100 µM | [4] > 100 µM | [5] > 100 µM | [6] > 100 µM | [7] > 100 µM | [8] > 100 µM | [9] > 100 µM | [10] > 100 µM | [11] > 100 µM | [12] > 100 µM | [13] > 100 µM | [14] > 100 µM | [15] > 100 µM | [16] > 100 µM | [17] > 100 µM | [18] > 100 µM | [19] > 100 µM | [20] > 100 µM

O=C(O)C1CCCN1Cc1ccc2c(c1)OCO2 (centres undefined)
inactive: [1] > 100 µM | [2] > 100 µM | [3] > 100 µM | [4] > 100 µM | [5] > 100 µM | [6] > 100 µM | [7] > 100 µM | [8] > 100 µM | [9] > 100 µM | [10] > 100 µM | [11] > 100 µM | [12] > 100 µM | [13] > 100 µM | [14] > 100 µM | [15] > 100 µM | [16] > 100 µM | [17] > 100 µM | [18] 18.4 µM | [19] > 100 µM | [20] > 100 µM

CN(C)C(=S)C(Cl)(c1ccccc1)c1ccccc1
inactive: [1] 44.4 µM | [2] > 100 µM | [3] 27.8 µM | [4] > 100 µM | [5] 22.6 µM | [6] > 100 µM | [7] 36.2 µM | [8] 34.5 µM | [9] > 100 µM | [10] 33.3 µM | [11] 35.4 µM | [12] 73.8 µM | [13] > 100 µM | [14] 36.6 µM | [15] 27.4 µM | [16] 36.4 µM | [17] 43.7 µM | [18] 15.8 µM | [19] > 100 µM | [20] 84.9 µM

Cc1cn(C2CC(O)C(Cn3nncc3Cn3ccc(=O)[nH]c3=O)O2)c(=O)[nH]c1=O (centres undefined)
inactive: [1] > 100 µM | [2] > 100 µM | [3] > 100 µM | [4] > 100 µM | [5] > 100 µM | [6] > 100 µM | [8] > 100 µM | [9] > 100 µM | [10] > 100 µM | [11] > 100 µM | [12] > 100 µM | [13] > 100 µM | [14] > 100 µM | [15] > 100 µM | [16] > 100 µM | [17] > 100 µM | [18] > 100 µM | [19] > 100 µM | [20] > 100 µM

COc1ccc(CC(COS(=O)(=O)c2ccc(C)cc2)NS(=O)(=O)c2ccc(C)cc2)cc1 (centres undefined)
inactive: [1] 16 µM | [2] 17.4 µM | [3] 14.6 µM | [4] 6.56 µM | [5] 10.2 µM | [6] 15.6 µM | [7] 43.2 µM | [8] 19.5 µM | [9] 10.7 µM | [10] 7.01 µM | [11] 20.7 µM | [12] 15.3 µM | [13] 13.7 µM | [14] 17.1 µM | [15] 15.1 µM | [16] 9.02 µM | [17] 15.4 µM | [18] 8.91 µM | [19] 17.4 µM | [20] 12.4 µM
